This note sets out measurements from patent publication US20250388574A1, “HETEROCYCLIC COMPOUNDS AS TRIGGERING RECEPTOR EXPRESSED ON MYELOID CELLS 2 AGONISTS AND METHODS OF USE” (AMGEN INC., priority 2020, published 2025).

For this test, the target named is hTREM2 (Homo sapiens, UniProt Q9NZC2). In words: Phospho-Syk AlphaScreen/AlphaLISA assay in TREM2 and DAP12 overexpressing HEK293 cells (Example A1). As to conditions: HEK293 cells; for EC50: read-out: hTREM2 EC50. The format is cell-based. On the set-up: expressed in transfected cells. Here is the method: Pharmacological measurements of TREM2 signaling through DAP12 were made with TREM2 and DAP12 overexpressing HEK293 cells stable cell lines that had been single-cell cloned (“TREM2/DAP12-HEK”). The readout of the TREM2 signaling utilized Perkin Elmer AlphaScreen/AlphaLISA technology monitoring the phosphorylation levels of the Syk kinase. TREM2/DAP12-HEK cell lines were cultured in DMEM-F12 (Corning 10-092-CM) supplemented with 1× Penicillin/Streptomycin (Corning 30-002-CI), 1× GlutaMAX (Gibco 35050-061), and 10% Fetal Bovine Serum (Life Technologies 10099) referred to as “HEK Culture Medium”. Suspensions of TREM2/DAP12-HEK cells were prepared in HEK Culture Medium and dispensed into 384-well poly-D-lysine coated microplates (Corning 354661) at a density of 20,000 cells/well using a Multidrop Combi peristaltic microplate dispenser (Thermo), 25 uL volume of cell suspension/well. Plates containing cells were then incubated for 20 hours in a humidified cell culture incubator at 37° C. with 5% CO2 (Thermo). […] Assay Buffer contained diluted test articles (in 1% final DMSO concentration for compounds) or 100 nM anti-human/mouse TREM2 antibody (R&D Systems MAB17291) as a positive control, 100 nM or rat IgG2B isotype Ab as a negative control (R&D Systems MAB0061). Incubated the plates with test articles and controls for 45 minutes at room temperature and then aspirated/removed the medium from each well of the plates. Used a Multidrop Combi peristaltic liquid handler (Thermo) to dispense 15 uL/well of “Cell Lysis Immunoassay Buffer”. The Cell Lysis Immunoassay Buffer contained M-PER Mammalian Protein Extraction Reagent (Pierce/ThermoFisher 78505), 1× Halt Phosphatase Inhibitor Cocktail (ThermoFisher #78427), 0.1875 nM anti-phospho-Syk ([…]/526) ([…]) rabbit mAb (Cell Signaling Technologies catalog #2710), and 1.5 nM biotinylated Mouse anti-human Syk (4D10) antibody (BD Biosciences, catalog #624008). Incubated plates for 1 hour at room temperature after the addition of the Cell Lysis Immunoassay Buffer. Used the Multidrop Combi liquid handler to dispense 15 μL of AlphaScreen Acceptor Bead Solution containing 7.5 μg/mL anti-rabbit IgG (Fc specific) AlphaLISA Acceptor Beads (Perkin Elmer A[…]) in 1× Immunoassay buffer (Perkin Elmer A[…]) to each well of the microplates. Incubated plates for 2 hours at room temperature. Following the incubation with the AlphaLISA Acceptor Bead Solution, used a Multidrop Combi liquid handler (Thermo) to dispense 15 μL of AlphaScreen Donor Bead Solution containing 30 μg/mL of AlphaScreen Streptavidin Donor beads (Perkin Elmer 6760002B) in 1× Immunoassay buffer (Perkin Elmer A[…]) to each well of the microplates. Incubated microplates for 2 hours protected from light sources as the AlphaScreen reagents are light sensitive. Once the final incubation was completed, acquired AlphaScreen signal from the donor and acceptor beads using an Envision high throughput multi-modal microplate reader (Perkin Elmer) calibrated to the plate type with the AlphaScreen mirror and filter-set in 384-well mode, 680 nanometer excitation wavelength. The total measurement time per well was 550 milliseconds with a 180 millisecond excitation time. After reading the AlphaScreen signal for each well of the microplates, on a plate-by-plate basis, each raw test article well value (x) was normalized to a Percent of Control (“POC”) value using the following formula: […] Each plate contained 12 of each type of control wells that were used to generate the mean values. For concentration response curve analysis with test articles tested at various concentrations, the % of activation values were analyzed with 4 Parameter Logistic or Sigmoidal Dose-Response Models using GeneData Screener (GeneData, AG) or GraphPad Prism 7 (Graphpad Software, Inc.). […] This assay may be used to test any of the compounds described herein to assess and characterize a compound's ability to act as an agonist of TREM2.
Sequence of hTREM2 (Q9NZC2 19-230): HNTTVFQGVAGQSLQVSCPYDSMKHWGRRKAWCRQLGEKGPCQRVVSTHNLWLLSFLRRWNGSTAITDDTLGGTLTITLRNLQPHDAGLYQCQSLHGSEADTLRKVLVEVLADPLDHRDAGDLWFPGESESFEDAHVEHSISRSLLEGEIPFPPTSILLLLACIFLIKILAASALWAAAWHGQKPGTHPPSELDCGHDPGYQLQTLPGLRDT
Sequence of hTREM2 (O43914 22-113 partner): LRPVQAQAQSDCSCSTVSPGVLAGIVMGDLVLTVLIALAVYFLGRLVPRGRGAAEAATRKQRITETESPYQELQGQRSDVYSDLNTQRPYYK
A general note: In Alpha technology, singlet oxygen from a donor bead excites a nearby acceptor bead.

The EC50 is the concentration that produces a half-maximal response. In the case of “5-(4-chloro-2-fluorophenyl)-2,3-dimethyl-7-((2R,4R)-2-(1-methyl-1H-pyrazol-4-yl)tetrahydro-2H-pyran-4-yl)pyrido[4,3-d]pyrimidin-4(3H)-one and 5-(4-chloro-2-fluorophenyl)-2,3-dimethyl-7-((2S,4S)-2-(1-methyl-1H-pyrazol-4-yl)tetrahydro-2H-pyran-4-yl)pyrido[4,3-d]pyrimidin-4(3H)-one [Example 161]”, the Emax result was “+++ (Emax>200 and ≤300)”; the EC50 lay in the range of 500 to 3000 nM. With `Cc1nc2cc(C3=CC(c4cnn(C)c4)OCC3)nc(-c3ccc(Cl)cc3F)c2c(=O)n1C` (racemic) [Example 164, 5-(4-chloro-2-fluorophenyl)-2,3-dimethyl-7-(6-(1-methyl-1H-pyrazol-4-yl)-3,6-dihydro-2H-pyran-4-yl)pyrido[4,3-d]pyrimidin-4(3H)-one], the Emax result was “+++ (Emax>200 and ≤300)”; the EC50 lay within 50 to 500 nM. As for `Cc1nc2cc([C@@H]3CCO[C@@H](c4cccnc4)C3)nc(-c3ccc(Cl)cc3F)c2c(=O)n1C` (relative stereo) [Example 176, 5-(4-chloro-2-fluorophenyl)-2,3-dimethyl-7-((2R,4R)-2-(3-pyridinyl)tetrahydro-2H-pyran-4-yl)pyrido[4,3-d]pyrimidin-4(3H)-one and 5-(4-chloro-2-fluorophenyl)-2,3-dimethyl-7-((2S,4S)-2-(3-pyridinyl)tetrahydro-2H-pyran-4-yl)pyrido[4,3-d]pyrimidin-4(3H)-one], the Emax entry is “++++ (Emax>300)” and the EC50 was 500 to 3000 nM. Take `CCn1cc([C@H]2CN(c3cc4nc(C)n(C)c(=O)c4c(-c4ccc(Cl)cc4F)n3)CCO2)cn1` (single isomer, unassigned) [Example 23]: the Emax entry is “++++ (Emax>300)” and the half-maximal effective concentration (EC50) was below 50 nM.

Take `CCn1cc([C@@H]2CN(c3cc4nc(C)n(C)c(=O)c4c(-c4ccc(Cl)cc4F)n3)CCO2)cn1` (single isomer, unassigned) [Example 24]: the Emax entry is “++++ (Emax>300)” and the half-maximal effective concentration (EC50) was 50 to 500 nM. For the compound `Cc1nc2cc(N3C[C@H](c4cnn(C)c4)OC[C@H]3C)nc(-c3ccc(Cl)cc3F)c2c(=O)n1C` (single isomer, unassigned) [Example 25], the Emax entry was “+++ (Emax>200 and ≤300)”; the concentration for a half-maximal effect (EC50) lay in the range of 500 to 3000 nM. With `Cc1nc2cc(N3C[C@@H](c4cnn(C)c4)OC[C@H]3C)nc(-c3ccc(Cl)cc3F)c2c(=O)n1C` (single isomer, unassigned) [Example 26], the Emax entry was “+++ (Emax>200 and ≤300)”; the half-maximal effective concentration (EC50) was in the range of 500 to 3000 nM. Turning to `Cc1nc2cc(N3C[C@@H](C)O[C@H](c4cnn(C)c4)C3)nc(-c3ccc(Cl)cc3F)c2c(=O)n1C` (single isomer, unassigned) [Example 27], the Emax result is “++++ (Emax>300)” and the concentration for a half-maximal effect (EC50) was 50 to 500 nM.

With `Cc1nc2cc(N3C[C@@H](C)O[C@@H](c4cnn(C)c4)C3)nc(-c3ccc(Cl)cc3F)c2c(=O)n1C` (single isomer, unassigned) [Example 28], the Emax result is “+++ (Emax>200 and ≤300)”; the concentration for a half-maximal effect (EC50) was below 50 nM. As for `Cc1nc2cc(N3C[C@@H](c4cnn(C)c4)O[C@@H](C)C3)nc(-c3ccc(Cl)cc3F)c2c(=O)n1C` (single isomer, unassigned) [Example 29], the Emax entry was “+++ (Emax>200 and ≤300)”; the concentration giving a half-maximal response (EC50) is 500 to 3000 nM. As to `Cc1nc2cc(N3C[C@H](C)O[C@@H](c4cnn(C)c4)C3)nc(-c3ccc(Cl)cc3F)c2c(=O)n1C` (single isomer, unassigned) [Example 30], the Emax entry is “+++ (Emax>200 and ≤300)”; the EC50 fell in the range of 500 to 3000 nM. For the compound `Cc1nc2cc(N3C[C@@H](C)O[C@@H](C4CC4)C3)nc(-c3ccc(Cl)cc3F)c2c(=O)n1C` (single isomer, unassigned) [Example 34], the Emax result is “++++ (Emax>300)” and the EC50 is 500 to 3000 nM. `Cc1nc2cc(N3C[C@H](C)O[C@@H](C4CC4)C3)nc(-c3ccc(Cl)cc3F)c2c(=O)n1C` (single isomer, unassigned) [Example 35]: the Emax entry was “+++ (Emax>200 and ≤300)”; the EC50 fell in the range of 500 to 3000 nM.

In the case of `Cc1nc2cc(N3C[C@@H](C)O[C@H](C4CC4)C3)nc(-c3ccc(Cl)cc3F)c2c(=O)n1C` (single isomer, unassigned) [Example 36], the Emax result is “+++ (Emax>200 and ≤300)”; the half-maximal effective concentration (EC50) is 3000 to 100000 nM. Regarding `Cc1nc2cc(N3C[C@@H](C4CC4)O[C@@H](C)C3)nc(-c3ccc(Cl)cc3F)c2c(=O)n1C` (single isomer, unassigned) [Example 37], the Emax entry is reported as “++++ (Emax>300)” and the EC50 was in the range of 50 to 500 nM. For `Cc1nc2cc(N3CCO[C@@H]([C@H]4CCO4)C3)nc(-c3ccc(Cl)cc3F)c2c(=O)n1C` (single isomer, unassigned) [Example 38], the Emax entry is “+++ (Emax>200 and ≤300)”; the EC50 was 500 to 3000 nM. Turning to `Cc1nc2cc(N3CCO[C@@H]([C@@H]4CCO4)C3)nc(-c3ccc(Cl)cc3F)c2c(=O)n1C` (single isomer, unassigned) [Example 39], the Emax result is “+++ (Emax>200 and ≤300)”; the concentration for a half-maximal effect (EC50) lay within 500 to 3000 nM. Regarding `Cc1nc2cc(N3CCO[C@H]([C@@H]4CCO4)C3)nc(-c3ccc(Cl)cc3F)c2c(=O)n1C` (single isomer, unassigned) [Example 40], the Emax entry was “+++ (Emax>200 and ≤300)”; the EC50 is 500 to 3000 nM. For `Cc1nc2cc(N3CCO[C@H]([C@H]4CCO4)C3)nc(-c3ccc(Cl)cc3F)c2c(=O)n1C` (single isomer, unassigned) [Example 41], the Emax entry was “+++ (Emax>200 and ≤300)”; the EC50 lay within 500 to 3000 nM. With `Cc1nc2cc(N3CCO[C@@H]([C@H]4CCOC4)C3)nc(-c3ccc(Cl)cc3F)c2c(=O)n1C` (single isomer, unassigned) [Example 42], the Emax result was “++++ (Emax>300)” and the half-maximal effective concentration (EC50) fell in the range of 50 to 500 nM.

Regarding `Cc1nc2cc(N3CCO[C@H]([C@H]4CCOC4)C3)nc(-c3ccc(Cl)cc3F)c2c(=O)n1C` (single isomer, unassigned) [Example 43], the Emax result was “+++ (Emax>200 and ≤300)”; the concentration for a half-maximal effect (EC50) was in the range of 50 to 500 nM.

Turning to `Cc1nc2cc(N3CCO[C@@H]([C@@H]4CCOC4)C3)nc(-c3ccc(Cl)cc3F)c2c(=O)n1C` (single isomer, unassigned) [Example 44], the Emax entry is “+++ (Emax>200 and ≤300)”; the EC50 lay within 50 to 500 nM. Consider `Cc1nc2cc(N3CCO[C@H]([C@@H]4CCOC4)C3)nc(-c3ccc(Cl)cc3F)c2c(=O)n1C` (single isomer, unassigned) [Example 45], for which the concentration for a half-maximal effect (EC50) lay within 500 to 3000 nM.

As for `Cc1nc2cc(N3CCO[C@@H](c4cccnc4)C3)nc(-c3ccc(Cl)cc3F)c2c(=O)n1C` (single isomer, unassigned) [Example 46], the Emax result is listed as “++++ (Emax>300)” and the half-maximal effective concentration (EC50) is 50 to 500 nM. For `Cc1nc2cc(N3CCO[C@H](c4cccnc4)C3)nc(-c3ccc(Cl)cc3F)c2c(=O)n1C` (single isomer, unassigned) [Example 47] the same measures were “++++ (Emax>300)” and 3000 to 100000 nM.

`Cc1nc2cc(N3CCO[C@H](c4ccncc4)C3)nc(-c3ccc(Cl)cc3F)c2c(=O)n1C` (single isomer, unassigned) [Example 48]: the Emax entry was “+++ (Emax>200 and ≤300)”; the EC50 fell in the range of 500 to 3000 nM. Take `Cc1nc2cc(N3CCO[C@@H](c4ccncc4)C3)nc(-c3ccc(Cl)cc3F)c2c(=O)n1C` (single isomer, unassigned) [Example 49]: the Emax result was “++++ (Emax>300)” and the concentration giving a half-maximal response (EC50) was below 50 nM.
